Laboratory results published in patent publication US20230219925A1, “BENZO FIVE-MEMBERED NITROGEN HETEROCYCLIC COMPOUND AND APPLICATION THEREOF” (GUANGZHOU INSTITUTES OF BIOMEDICINE AND HEALTH CHINESE …, priority 2020, published 2023).
Like-named read-outs stand apart in the source and are kept apart here.

Key:
[1] = target: T1, RORγ (Homo sapiens, UniProt P51449); experiment: luciferase dual reporter gene assay, Gal4-RORγLBD in 293T cells
T1 sequence (P51449 269-508 limits assumed): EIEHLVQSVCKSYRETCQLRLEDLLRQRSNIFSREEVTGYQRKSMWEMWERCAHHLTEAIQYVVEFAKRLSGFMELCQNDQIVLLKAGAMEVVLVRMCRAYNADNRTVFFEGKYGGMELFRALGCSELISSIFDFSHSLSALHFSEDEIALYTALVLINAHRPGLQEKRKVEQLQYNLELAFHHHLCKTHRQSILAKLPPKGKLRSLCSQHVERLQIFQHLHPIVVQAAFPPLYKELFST
Procedure: On the day before transfection, cells were prepared in the 96-well plate with a cell density of 1.5×10^4 cells/well. After 24 hours of adherent growth, transient transfection was performed with the transfection reagent Lipo-fectamine 2000 through a method of dual reporter gene co-transfection. The transfection reagent and the plasmids were separately diluted with the Opti-MEM Reagent. Gal4-RORγLBD (25 ng), pG5-luc genes (25 ng) and Renilla (5 ng) were added to each well, and after 24 hours of co-transfection, compounds having different concentrations were added. After 24 hours of incubation, the luciferase dual reporter gene detection assay kit was used for detecting luminescence signals. Three duplicate wells were set for each sample, and IC50 values (half maximal inhibitory concentrations) were calculated by software.

[2] = target: T2, hRORγ (Homo sapiens, UniProt P51449); experiment: protein thermal stability shift assay (TSA)
T2 sequence (P51449 1-518): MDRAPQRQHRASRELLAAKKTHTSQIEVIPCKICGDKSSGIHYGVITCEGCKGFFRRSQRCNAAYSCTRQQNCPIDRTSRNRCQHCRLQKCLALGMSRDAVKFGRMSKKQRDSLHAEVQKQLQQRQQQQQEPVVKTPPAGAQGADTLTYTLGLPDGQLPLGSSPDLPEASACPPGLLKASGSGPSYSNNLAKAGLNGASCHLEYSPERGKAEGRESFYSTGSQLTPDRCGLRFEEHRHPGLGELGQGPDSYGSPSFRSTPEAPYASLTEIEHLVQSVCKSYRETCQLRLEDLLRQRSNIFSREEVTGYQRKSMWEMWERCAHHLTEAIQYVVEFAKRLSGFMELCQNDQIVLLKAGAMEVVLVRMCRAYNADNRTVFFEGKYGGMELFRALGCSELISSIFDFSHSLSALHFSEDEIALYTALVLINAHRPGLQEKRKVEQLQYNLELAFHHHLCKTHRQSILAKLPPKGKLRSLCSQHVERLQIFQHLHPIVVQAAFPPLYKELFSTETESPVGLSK

[3] = IC50 (luciferase detection technique), RORγ transcriptional activity, Table 1
[4] = read-out: ΔTm (TSA detection technique), hRORγ 10 μM, compound 200 μM
[5] = read-out: ΔTm (TSA detection technique)

IC50 [1, 3] [nM] | ΔTm at 200 µM [2, 4] [°C] | IC50 [1] [nM] | ΔTm at 200 µM [2, 5] [°C] | Compound
10000 to 100000 | 5 to 10 | – | – | CCS(=O)(=O)c1ccc(CC(=O)Nc2ccc(-c3nc4ccc(OC)cc4s3)cc2)cc1 [Example 31, 2-(4-(ethylsulfonyl)phenyl)-N-(4-(6-methoxybenzo[d]thiazol-2-yl)phenyl) acetamide]
100 to 1000 | < 5 | – | – | CCS(=O)(=O)c1ccc(CC(=O)Nc2ccc(-c3nc4cc(C)c(C)cc4n3Cc3ccccc3)cc2)cc1 [Example 85, N-(4-(1-benzyl-5,6-dimethyl-1H-benzo[d]imidazol-2-yl)phenyl)-2-(4-(ethylsulfonyl)phenyl)acetamide]
< 100 | > 10 | – | – | CCCCCCC(=O)Nc1ccc(-c2nc3ccc(C)cc3s2)cc1 [Example 26, N-(4-(6-methylbenzo[d]thiazol-2-yl)phenyl)heptanamide]
1000 to 10000 | 5 to 10 | – | – | CCS(=O)(=O)c1ccc(C(NC(C)=O)C(=O)Nc2ccc(-c3nc4cc(C(=O)NC(C)C)ccc4n3[C@H](C)c3ccc(C)cc3)cc2)cc1 (stereo partly drawn) [Example 78, 2-(4-(2-acetylamino-2-(4-(ethylsulfonyl)phenyl)acetylamino)phenyl)-N-isopropyl-1-((R)-1-(p-tolyl)ethyl)-1H-benzo[d]imidazol-5-formamide]
1000 to 10000 | 5 to 10 | – | – | CCS(=O)(=O)c1ccc(CC(=O)Nc2ccc(-c3nc4ccc(F)cc4s3)cc2)cc1 [Example 30, 2-(4-(ethylsulfonyl)phenyl)-N-(4-(6-fluorobenzo[d]thiazol-2-yl)phenyl)acetamide]
1000 to 10000 | 5 to 10 | – | – | CCS(=O)(=O)c1ccc(C(NC(C)=O)C(=O)Nc2ccc(-c3nc4cc(C(=O)NC(C)C)ccc4n3[C@@H](C)c3ccc(C)cc3)nc2)cc1 (stereo partly drawn) [Example 84, 2-(5-(2-acetylamino-2-(4-(ethylsulfonyl)phenyl)acetylamino)pyridin-2-yl)-N-isopropyl-1-((S)-1-(p-tolyl)ethyl)-1H-benzo[d]imidazol-5-formamide]
1000 to 10000 | > 10 | – | – | Cc1ccc(CS(=O)(=O)Nc2ccc(-c3nc4ccc(C)cc4s3)cc2)cc1 [Example 12, N-(4-(6-methylbenzo[d]thiazol-2-yl)phenyl)-1-(p-tolyl)methanesulfonamide]
< 100 | < 5 | – | – | CCS(=O)(=O)c1ccc(C(NC(C)=O)C(=O)Nc2ccc(-c3nc4ccc(C)cc4n3[C@@H](C)c3ccc(C)cc3)cc2)cc1 (stereo partly drawn) [Example 73, 2-acetylamino-2-(4-(ethylsulfonyl)phenyl)-N-(4-(6-methyl-1-((S)-1-(p-tolyl)ethyl)-1H-benzo[d]imidazol-2-yl)phenyl)acetamide]
10000 to 100000 | > 10 | – | – | Cc1ccc2nc(-c3ccc(NS(=O)(=O)Cc4cccc(N)c4)cc3)sc2c1 [Example 24, 1-(3-aminophenyl)-N-(4-(6-methylbenzo[d]thiazol-2-yl)phenyl)methane sulfonamide]
– | – | < 100 | < 5 | CCS(=O)(=O)c1ccc(C(NC(C)=O)C(=O)Nc2ccc(-c3nc4ccc(C)cc4n3[C@@H](C)c3ccc(C)cc3)nc2)cc1 (stereo partly drawn) [Example 80, 2-acetylamino-2-(4-(ethylsulfonyl)phenyl)-N-(6-(6-methyl-1-((S)-1-(p-tolyl)ethyl)-1H-benzo[d]imidazol-2-yl)pyridin-3-yl)acetamide]
1000 to 10000 | > 10 | – | – | Cc1cc(C)c(S(=O)(=O)Nc2ccc(-c3nc4ccc(C)cc4s3)cc2)c(C)c1 [Example 10, 2,4,6-trimethyl-N-(4-(6-methylbenzo[d]thiazol-2-yl)phenyl)benzenesulfonamide]
– | – | < 100 | < 5 | CCS(=O)(=O)c1ccc(C(NC(C)=O)C(=O)Nc2ccc(-c3nc4ccc(C)cc4n3[C@H](C)c3ccc(C)cc3)nc2)cc1 (stereo partly drawn) [Example 82, 2-acetylamino-2-(4-(ethylsulfonyl)phenyl)-N-(6-(6-methyl-1-((R)-1-(p-tolyl)ethyl)-1H-benzo[d]imidazol-2-yl)pyridin-3-yl)acetamide]
< 100 | < 5 | – | – | CCCCCn1c(-c2ccc(NC(=O)C(NC(C)=O)c3ccc(S(=O)(=O)CC)cc3)cc2)nc2ccc(C)cc21 (centres unmarked) [Example 76, 2-acetylamino-2-(4-(ethylsulfonyl)phenyl)-N-(4-(6-methyl-1-pentyl-1H-benzo[d]imidazol-2-yl)phenyl)acetamide]
– | – | 10000 to 100000 | > 10 | CCN1C(=O)c2cccc3c(S(=O)(=O)Nc4ccc(-c5nc6ccc(C)cc6s5)cc4)ccc1c23 [Example 11, 1-ethyl-N-(4-(6-methylbenzo[d]thiazol-2-yl)phenyl)-2-oxo-1,2-dihydrobenzo[cd]indol-6-sulfonamide]
10000 to 100000 | > 10 | – | – | Cc1ccc(CC(=O)Nc2ccc(-c3nc4ccc(C)cc4s3)cc2)cc1 [Example 27, N-(4-(6-methylbenzo[d]thiazol-2-yl)phenyl)-2-(p-tolyl)acetamide]
1000 to 10000 | < 5 | – | – | CCS(=O)(=O)c1ccc(C(NC(C)=O)C(=O)Nc2ccc(-c3nc4cc(C(=O)NC(C)C)ccc4n3[C@H](C)c3ccc(C)cc3)nc2)cc1 (stereo partly drawn) [Example 83, 2-(5-(2-acetylamino-2-(4-(ethylsulfonyl)phenyl)acetylamino)pyridin-2-yl)-N-isopropyl-1-((R)-1-(p-tolyl)ethyl)-1H-benzo[d]imidazol-5-formamide]
< 100 | 5 to 10 | – | – | CCS(=O)(=O)c1ccc(CC(=O)Nc2ccc(-c3nc4ccc(C(=O)NC5CCCC5)cc4n3[C@H](C)c3ccc(C)cc3)cc2)cc1 [Example 70, (R)—N-cyclopentyl-2-(4-(2-(4-(ethylsulfonyl)phenyl)acetylamino)phenyl)-1-(1-(p-tolyl)ethyl)-1H-benzo[d]imidazol-6-formamide]
< 100 | 5 to 10 | – | – | CCS(=O)(=O)c1ccc(CC(=O)Nc2ccc(-c3nc4ccc(C)cc4n3Cc3ccc(C#N)cc3)cc2)cc1 [Example 49, N-(4-(1-(4-cyanobenzyl)-6-methyl-1H-benzo[d]imidazol-2-yl)phenyl)-2-(4-(ethylsulfonyl)phenyl)acetamide]
1000 to 10000 | > 10 | – | – | Cc1ccc2nc(-c3ccc(NS(=O)(=O)Cc4ccc(C#N)cc4)cc3)sc2c1 [Example 16, 1-(4-cyanophenyl)-N-(4-(6-methylbenzo[d]thiazol-2-yl)phenyl)methanesulfonamide]
< 100 | < 5 | – | – | CCS(=O)(=O)c1ccc(C(NC(C)=O)C(=O)Nc2ccc(-c3nc4ccc(C)cc4n3[C@H](C)c3ccc(C)cc3)cc2)cc1 (stereo partly drawn) [Example 77, 2-acetylamino-2-(4-(ethylsulfonyl)phenyl)-N-(4-(6-methyl-1-((R)-1-(p-tolyl)ethyl)-1H-benzo[d]imidazopyridin-2-yl)phenyl)acetamide]
1000 to 10000 | 5 to 10 | – | – | CCS(=O)(=O)c1ccc(C(NC(C)=O)C(=O)Nc2ccc(-c3nc4cc(C(=O)NC(C)C)ccc4n3[C@@H](C)c3ccc(C)cc3)cc2)cc1 (stereo partly drawn) [Example 79, 2-(4-(2-acetylamino-2-(4-(ethylsulfonyl)phenyl)acetylamino)phenyl)-N-isopropyl-1-((S)-1-(p-tolyl)ethyl)-1H-benzo[d]imidazol-5-formamide]
< 100 | 5 to 10 | – | – | CCS(=O)(=O)c1ccc(CC(=O)Nc2ccc(-c3nc4cc(C(=O)NC5CCCC5)ccc4n3[C@H](C)c3ccc(C)cc3)cc2)cc1 [Example 72, (R)—N-cyclopentyl-2-(4-(2-(4-(ethylsulfonyl)phenyl)acetylamino)phenyl)-1-(1-(p-tolyl)ethyl)-1H-benzo[d]imidazol-5-formamide]
< 100 | 5 to 10 | – | – | CCS(=O)(=O)c1ccc(CC(=O)Nc2ccc(-c3nc4cc(Cl)ccc4n3Cc3ccccc3)cc2)cc1 [Example 53]
1000 to 10000 | > 10 | – | – | CCS(=O)(=O)c1ccc(CC(=O)Nc2ccc(-c3nc4ccc(C)cc4[nH]3)cc2)cc1 [Example 87, 2-(4-(ethylsulfonyl)phenyl)-N-(4-(6-methyl-1H-benzo[d]imidazol-2-yl)phenyl)acetamide]
1000 to 10000 | < 5 | – | – | Cc1ccc2nc(-c3ccc(NS(=O)(=O)c4ccc([N+](=O)[O-])cc4)cc3)sc2c1 [Example 5, N-(4-(6-methylbenzo[d]thiazol-2-yl)phenyl)-4-nitrobenzenesulfonamide]
– | – | < 100 | < 5 | CCCCCn1c(-c2ccc(NC(=O)C(NC(C)=O)c3ccc(S(=O)(=O)CC)cc3)cn2)nc2ccc(C)cc21 (centres unmarked) [Example 81, 2-acetylamino-2-(4-(ethylsulfonyl)phenyl)-N-(6-(6-methyl-1-pentyl-1H-benzo[d]imidazol-2-yl)pyridin-3-yl)acetamide]
100 to 1000 | – | – | – | CCS(=O)(=O)c1ccc(C(NC(C)=O)C(=O)Nc2ccc(-c3nc4ccc(C)cc4n3[C@@H](C)c3ccc(C)cc3)cc2)cc1 (single isomer, unassigned) [Example 75]
